Reference: BindingDB's records for doi:10.1016/j.chembiol.2007.10.011 (Vanderbilt University, 2007)
“And” between values parts separate entries of the source, which are not always exact repeats. Equal values may be shown once.

Key:
[1] = biological target: Sterol 14-alpha demethylase (Trypanosoma cruzi (strain CL Brener), UniProt Q7Z1V1); assay: Inhibition Assay; conditions: pH 6
[2] = biological target: Lanosterol 14-alpha-demethylase (Trypanosoma brucei brucei (strain 927/4 GUTat10.1), UniProt Q385E8); assay: Inhibition Assay; conditions: pH 6
Sequence of Lanosterol 14-alpha-demethylase (Q385E8 whole entry): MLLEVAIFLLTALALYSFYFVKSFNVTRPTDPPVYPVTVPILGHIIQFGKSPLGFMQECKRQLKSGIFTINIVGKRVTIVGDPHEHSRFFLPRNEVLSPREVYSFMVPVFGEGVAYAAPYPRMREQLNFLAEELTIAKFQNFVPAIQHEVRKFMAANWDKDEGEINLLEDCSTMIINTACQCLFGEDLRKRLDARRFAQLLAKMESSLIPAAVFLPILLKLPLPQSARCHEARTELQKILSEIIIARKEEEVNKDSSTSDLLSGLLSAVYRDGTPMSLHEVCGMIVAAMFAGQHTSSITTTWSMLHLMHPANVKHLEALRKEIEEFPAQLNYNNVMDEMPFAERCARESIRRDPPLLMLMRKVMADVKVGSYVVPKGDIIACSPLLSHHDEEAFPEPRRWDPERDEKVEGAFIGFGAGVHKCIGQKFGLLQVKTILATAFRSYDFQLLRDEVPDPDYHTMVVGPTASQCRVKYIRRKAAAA

Sequence of Sterol 14-alpha demethylase (Q7Z1V1 whole entry): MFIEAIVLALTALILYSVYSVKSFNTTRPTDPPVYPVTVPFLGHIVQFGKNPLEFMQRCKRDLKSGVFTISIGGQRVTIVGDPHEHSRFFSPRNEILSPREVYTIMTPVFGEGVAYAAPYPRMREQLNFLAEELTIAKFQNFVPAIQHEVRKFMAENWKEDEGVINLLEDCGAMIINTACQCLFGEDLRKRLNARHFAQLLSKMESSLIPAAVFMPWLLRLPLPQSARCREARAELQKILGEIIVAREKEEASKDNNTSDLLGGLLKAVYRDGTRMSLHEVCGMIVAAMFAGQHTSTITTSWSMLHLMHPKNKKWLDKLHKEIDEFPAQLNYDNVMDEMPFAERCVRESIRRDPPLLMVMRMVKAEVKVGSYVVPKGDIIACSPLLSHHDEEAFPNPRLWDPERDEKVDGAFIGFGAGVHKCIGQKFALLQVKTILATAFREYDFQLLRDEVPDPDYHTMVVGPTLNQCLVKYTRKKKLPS

| Structure (SMILES) | Kd [1] [nM] | Kd [2] |
| --- | --- | --- |
| O=C(NC(Cn1ccnc1)c1ccc(Cl)cn1)c1ccc(-c2ccc(Cl)cc2)cc1 (centres undefined) [Azole, 20] | 70 |  |
| O=C(NCC(c1ccccc1)n1ccnc1)c1ccc(-c2ccc(Cl)cc2)cc1 (centres undefined) [Azole, 12] | 70 | 40 nM |
| O=C(NCC(c1ccccc1)n1ccnc1)c1ccc2sc3ccccc3c(=O)c2c1 (centres undefined) [Azole, 7] | 380 | 310 nM |
| COc1ccc(CC(CNC(=O)c2ccc(-c3ccc(Cl)cc3)cc2)n2ccnc2)cc1 (centres undefined) [Azole, 11] | 110 | 710 nM |
| O=C(NC(Cn1ccnc1)c1ccc(Cl)cc1Cl)c1nnc(-c2ccccc2)o1 (centres undefined) [Azole, 2] |  | 90 nM and 100 nM |
| O=C(NC(Cn1ccnc1)c1ccccc1)c1ccc(-c2ccc(Cl)cc2)cc1 (centres undefined) [Azole, 4] | 70 | 50 nM |
| CC(=O)N1CCN(c2ccc(OC[C@H]3CO[C@](Cn4ccnc4)(c4ccc(Cl)cc4Cl)O3)cc2)CC1 [24F2-1,25(OH)D3] |  | 2300 nM |
| O=C(NCC(c1ccccc1)n1ccnc1)c1cccc(Sc2ccccc2)c1 (centres undefined) [Azole, 10] | 50 | 50 nM |
| O=C(NCC(c1ccc(Cl)cc1)(c1ccc(Cl)cc1)n1ccnc1)c1ccccc1 [Azole, 1] | 320 | 1010 nM |
| O=C(NC(Cn1ccnc1)c1ccc(Cl)cn1)c1ccc(-c2ccc(Cl)cc2)cc1 (centres undefined) [Azole, 19] | 60 | 90 nM |
| CCCCOc1ccc(-c2ccc(C(=O)NC(Cn3ccnc3)c3ccc(Cl)cn3)cc2)cc1 (centres undefined) [Azole, 17] | 110 | 80 nM |
| O=C(NCC(c1ccccc1)n1ccnc1)c1csc(-c2ccc(Cl)cc2)c1 (centres undefined) [Azole, 8] | 110 | 210 nM |
| O=C(NC(Cn1ccnc1)c1ccc(Cl)cc1Cl)c1nnc(-c2ccccc2)o1 (centres undefined) [Azole, 3] | 140 | 140 nM |
| COc1cccc(Sc2ccc(C(=O)NCC(c3ccccc3)n3ccnc3)cc2)c1 (centres undefined) [Azole, 9] | 90 | 70 nM |
| O=C(NCC(c1ccccc1)n1ccnc1)c1cccc2c1oc1ccccc12 (centres undefined) [Azole, 6] | 130 | 210 nM |
| O=C(NCC(c1ccccc1)n1ccnc1)c1cnc[nH]1 (centres undefined) [Azole, 5] | 1200 | 1900 nM |
